# Measurements taken from patent US20100217003A1, “1,2,3,4-TETRAHYDROISOQUINOLINE DERIVATIVES HAVING EFFECTS OF PREVENTING AND TREATING DEGENERATIVE AND INFLAMMATORY DISEASES” (priority 2006, published 2010).
# Assays:
# GTPCH mRNA = assay: Expression of GTPCH genes in LPS-stimulated BV-2 cells (RT-PCR); format: cell-based, mouse
# Description: (§1) RT-PCR for GTPCH, iNOS, TNF-α, IL-1β and COX-2
# (§2) 5 ? each of total RNA samples isolated from BV-2 cells were subjected to reverse-transcription (RT), and then polymerase chain reaction (PCR) for 30 cycles under the conditions of 94° C. for 30 seconds, 60° C. for 40 seconds and 72° C. for one minute. Primers used in the PCR were as follows: iNOS (forward, ATGTCCGAAG-CAAACATCAC; reverse, TAATGTC CAGGAAGTAGGTG), TNF-α (forward, CA-[…] reverse, CAGAGCAATGACTC-CAAAGTAGACCT), IL-1β (forward, […]; reverse, CAGGACAGGTAT AGATTCTTTCCTTT), COX-2 (forward, […]; reverse, […]), GTPCH (forward, GGATACCAGGAGACCAT CTCA; reverse, TAGCATGGTGC-TAGTGACAGT). RT-PCR for B2M was simultaneously performed as internal control. The PCR products were subjected to electrophoresis in a 1.5% agarose gel, thereby confirming the presence of a desired size of single band.
# GTP cyclohydrolase I (GTPCH) is a rate-limiting enzyme in the synthesis of tetrahydrobiopterin (BH4) which is essential for iNOS catalysis. Accordingly, the down regulation of GTPCH may lower NO production. The assay was performed to determine whether EHMTIQ (11a) affects the expression of GTPCH genes induced by LPS. The LPS-stimulated BV-2 cell samples were treated with various concentrations of EHMTIQ (11a) and the expression of GTPCH genes was estimated by RT-PCR. The results are illustrated in FIG. 7.
# iNOS mRNA = assay: Expression of iNOS genes in LPS-stimulated BV-2 cells (RT-PCR); format: cell-based, mouse
# Description: as §1, §2
# The assay was performed to determine whether EHMTIQ (11a) affects the expression of iNOS genes. LPS-stimulated BV-2 cell samples were treated with various concentrations of EHMTIQ (11a), and the expression of iNOS gene was estimated by RT-PCR. The results are illustrated in FIG. 6.
# [1] = molecular target: T1, GTP cyclohydrolase I (GTPCH) (Homo sapiens, UniProt P30793); assay: Direct effect on catalysis of GTPCH; format: biochemical; details: not illustrated
# T1 sequence (P30793 1-250): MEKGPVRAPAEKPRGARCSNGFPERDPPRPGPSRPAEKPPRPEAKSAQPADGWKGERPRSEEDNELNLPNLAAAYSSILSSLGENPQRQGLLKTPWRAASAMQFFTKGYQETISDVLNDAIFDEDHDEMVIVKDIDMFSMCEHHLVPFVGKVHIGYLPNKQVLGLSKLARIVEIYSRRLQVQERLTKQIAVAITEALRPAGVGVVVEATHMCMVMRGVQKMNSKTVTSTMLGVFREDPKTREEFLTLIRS
# BV-2 cell [2] = assay: Inhibitory effect on NO production in LPS-stimulated BV-2 microglial cells (Griess); format: cell-based, mouse
# Description: BV-2 microglial cell line, CATH.a neuron line and SK-N-BE(2)C neuron line were cultured in Dulbecco's modified Eagle's medium (DMEM) supplemented with 10% bovine serum, […] penicillin, and 10 ? /ml streptomycin at 37° C. in an atmosphere of 5% CO2 and 95% air. The cells were planted on a polystyrene petri dish at the following densities: BV-2 (2.5×10^5 cells/24 well or 2.6×10^6 cells/60 mm dish; SK− N-BE(2)C (1.5×10^5 cells/24 well); and CATH.a (2.4×10^4 cells/96 well).
# Measurement of NO Production
# 200 ? of cell culture medium fraction and 100 ? of Griess reagent (2.5% […], 1% sulfanilamide and 0.1% naphthylethylenediamine dihydrochloride) were mixed in a 96-well microtiter plate, and the absorbance of a sample was read at 540 nm using a microtiter plate reader (multi-well spectrophotometer). The concentration of nitrite was calculated using a standard curve for sodium nitrite.
# To determine whether EHMTIQ (11a) inhibits NO production in an activated […] cell, a mouse microglial cell line, BV-2, was used in this assay. Lipopolysaccharide (LPS)-stimulated BV-2 cell samples were treated with various concentrations of EHMTIQ (11a) and then the NO level of a sample was measured. The results are illustrated in FIG. 1.
# [3] = Drug stability against liver microsomal enzymes; format: in vitro ADME, rat
# Description: Evaluation for Drug Stability
# 1 mM EHMTIQ (11a) was added to 1 mg samples of white rat liver microsomes, and the samples were incubated at 37° C. for 0, 30, 120 and 240 minutes in the presence of a NADPH-regeneration system (2.6 mM β-NADP^+, 10 mM glucose-6-phosphate, 4 UI/ml glucose-6-phosphate dehydrogenase and 10 mM MgCl2). Perchloric acid was added to the sample to make a final concentration of 500 mM and then the reaction was stopped. The reaction mixture was centrifuged at 16,000×g for 20 minutes. The supernatant solution (120 l) was purified using a Waters HPLC system [717 plus autosampler, 515 pump, and Symmetry C18 column (4.6 mm×150 mm, […])] using a 5-30% linear gradient of acetonitrile as mobile phase. EHMTIQ (11a) was detected at 254 nm using a Waters 486 UV detector and analyzed using EMPOWER software (Millipore Corporation, Milford, Mass., USA).
# Since almost all micromolecules are degraded by enzymes in the liver, the stability of a medicine to these enzymes is very important. To evaluate bioavailability of EHMTIQ (11a) in vivo, the degradation rate of EHMTIQ (11a) by liver microsomal enzyme was measured, and neutralized to remaining EHMTIQ after exposure to liver microsomes.
# BV-2 cell [4] = assay: Cytotoxicity of single treatment in BV-2 cells; format: cell-based, mouse; details: single treatment (not illustrated)
# IL-1β mRNA = assay: Expression of IL-1β genes in LPS-stimulated BV-2 cells (RT-PCR); format: cell-based, mouse
# Description: as §1, §2
# The assay was performed to investigate whether EHMTIQ (11a) affects IL-β production in an activated microglial cell. LPS-stimulated BV-2 cell smaples were treated with various concentrations of EHMTIQ (11a) and the expression of IL-1β genes was estimated by RT-PCR. The results are illustrated in FIG. 4.
compound,measurement,setting,value
"CCC(=O)N1CCc2cc(OC)c(O)cc2C1 [EHMTIQ (11a), 2-ethylcarbonyl-7-hydroxy-6-methoxy-1,2,3,4-tetrahydroisoquinoline]",gene expression of GTPCH,GTPCH mRNA; 2.5 (unit as image),17±1%
same,gene expression of GTPCH,GTPCH mRNA; 100 (unit as image),75±1%
same,expression of iNOS genes compared to the control only treated with LPS,iNOS mRNA; 5 (unit as image),82±1%
same,expression of iNOS genes compared to the control only treated with LPS,iNOS mRNA; 100 (unit as image),24±1%
same,direct effect on catalysis of GTPCH,[1],did not directly relate to the catalysis of GTPCH
same,"NO production induced by LPS, compared with the control not treated with EHMTIQ",BV-2 cell [2]; 5 (concentration unit printed as image),63±4%
same,NO production,BV-2 cell [2]; 100 (concentration unit printed as image),inhibit NO production to the control level
same,IC50,"BV-2 cell [2]; Mus musculus, unit printed as image",2.81 µM
same,EHMTIQ degraded,[3]; 2-hour exposure to liver microsomes,about 12.52%
same,EHMTIQ remained,[3]; 30-minute exposure to liver microsomes,~95%
same,degeneration rate of EHMTIQ,"[3]; liver microsomes, NADPH-regeneration system",1.115±0.203 nmole (EHMTIQ)/min/mg (liver microsomal protein)
same,cytotoxicity,BV-2 cell [4],did not exhibit any cytotoxicity
same,mRNA level of IL-1β,IL-1β mRNA; 2.5 (unit as image),74±0.7%
same,mRNA level of IL-1β,IL-1β mRNA; 100 (unit as image),significant decrease in the LPS effect
